Source: patent publication US10670605B2, “Cysteine reactive probes and uses thereof” (The Scripps Research Institute, priority 2015, dated 2020)

Key:
Assay in all cases: Competitive isoTOP-ABPP, cell lysates
Type in all cases: binding
[1] = biological target: SMARCC2 C145 (Q8TAQ2) (Homo sapiens, UniProt Q8TAQ2); details: for isoTOP-ABPP ratio Q8TAQ2_C145: 500 μM, invitro
[2] = biological target: PRMT1 C109 (Q99873) (Homo sapiens, UniProt Q99873); details: for isoTOP-ABPP ratio, Q99873_C109: 500 μM, invitro
PRMT1 C109 (Q99873), sequence (Q99873 whole entry): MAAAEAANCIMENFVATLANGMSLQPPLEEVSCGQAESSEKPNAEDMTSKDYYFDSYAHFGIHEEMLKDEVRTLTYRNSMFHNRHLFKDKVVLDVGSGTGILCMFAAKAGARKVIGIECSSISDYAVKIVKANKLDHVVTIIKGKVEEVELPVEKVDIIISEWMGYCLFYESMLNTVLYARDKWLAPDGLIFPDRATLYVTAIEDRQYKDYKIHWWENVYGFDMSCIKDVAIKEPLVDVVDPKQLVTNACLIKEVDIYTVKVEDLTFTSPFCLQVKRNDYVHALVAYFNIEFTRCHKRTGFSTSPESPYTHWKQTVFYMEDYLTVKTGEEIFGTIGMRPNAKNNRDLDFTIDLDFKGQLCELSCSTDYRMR

[3] = biological target: T1, UBE2S C118 (Q16763) (Homo sapiens, UniProt Q16763); details: for isoTOP-ABPP ratio, Q16763_C118: 500 μM, invitro
T1 sequence (Q16763 1-222): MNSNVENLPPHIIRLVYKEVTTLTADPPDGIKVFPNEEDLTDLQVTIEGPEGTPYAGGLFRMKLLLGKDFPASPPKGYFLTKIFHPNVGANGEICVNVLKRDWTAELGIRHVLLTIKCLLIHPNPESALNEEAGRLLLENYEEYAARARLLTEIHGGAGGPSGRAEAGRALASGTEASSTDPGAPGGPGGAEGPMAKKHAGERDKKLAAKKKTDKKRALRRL

[4] = biological target: T2, PDIA6 C190 (Q15084) (Homo sapiens, UniProt Q15084); details: for isoTOP-ABPP ratio, Q15084_C190: 500 μM, invitro
T2 sequence (Q15084 20-440): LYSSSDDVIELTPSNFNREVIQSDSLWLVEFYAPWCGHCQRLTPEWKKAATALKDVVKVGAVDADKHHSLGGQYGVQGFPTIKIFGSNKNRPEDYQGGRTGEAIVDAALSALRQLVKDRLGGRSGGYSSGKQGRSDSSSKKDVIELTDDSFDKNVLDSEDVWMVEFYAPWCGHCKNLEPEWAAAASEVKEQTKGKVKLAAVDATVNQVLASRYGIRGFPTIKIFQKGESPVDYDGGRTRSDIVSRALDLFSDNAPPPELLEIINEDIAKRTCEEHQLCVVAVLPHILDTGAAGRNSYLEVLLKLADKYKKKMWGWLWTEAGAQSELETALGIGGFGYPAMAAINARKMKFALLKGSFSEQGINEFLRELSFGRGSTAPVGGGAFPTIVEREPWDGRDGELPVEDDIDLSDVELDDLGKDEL

[5] = biological target: T3, ACAT1 C119 (P24752) (Homo sapiens, UniProt P24752); details: for isoTOP-ABPP ratio P24752_C119: 500 μM, invitro
T3 sequence (P24752 34-427): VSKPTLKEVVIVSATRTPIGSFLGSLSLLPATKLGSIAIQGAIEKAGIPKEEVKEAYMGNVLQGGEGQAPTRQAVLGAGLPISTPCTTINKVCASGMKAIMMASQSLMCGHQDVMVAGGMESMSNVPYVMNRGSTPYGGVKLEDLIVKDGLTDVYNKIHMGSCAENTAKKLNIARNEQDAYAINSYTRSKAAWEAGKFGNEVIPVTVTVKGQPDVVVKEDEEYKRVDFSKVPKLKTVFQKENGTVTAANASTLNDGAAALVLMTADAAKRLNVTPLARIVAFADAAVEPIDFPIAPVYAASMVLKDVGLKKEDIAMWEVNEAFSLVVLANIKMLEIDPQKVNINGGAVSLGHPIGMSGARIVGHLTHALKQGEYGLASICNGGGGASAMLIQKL

[6] = biological target: T4, ACAT1 C413 (P24752) (Homo sapiens, UniProt P24752); details: for isoTOP-ABPP ratio P24752_C413: 500 μM, invitro
T4 sequence (P24752 34-427): T3 sequence (P24752 34-427)

[7] = biological target: STAT3 C259 (P40763) (Homo sapiens, UniProt P40763); details: 500 μM, invitro
STAT3 C259 (P40763), sequence (P40763 whole entry): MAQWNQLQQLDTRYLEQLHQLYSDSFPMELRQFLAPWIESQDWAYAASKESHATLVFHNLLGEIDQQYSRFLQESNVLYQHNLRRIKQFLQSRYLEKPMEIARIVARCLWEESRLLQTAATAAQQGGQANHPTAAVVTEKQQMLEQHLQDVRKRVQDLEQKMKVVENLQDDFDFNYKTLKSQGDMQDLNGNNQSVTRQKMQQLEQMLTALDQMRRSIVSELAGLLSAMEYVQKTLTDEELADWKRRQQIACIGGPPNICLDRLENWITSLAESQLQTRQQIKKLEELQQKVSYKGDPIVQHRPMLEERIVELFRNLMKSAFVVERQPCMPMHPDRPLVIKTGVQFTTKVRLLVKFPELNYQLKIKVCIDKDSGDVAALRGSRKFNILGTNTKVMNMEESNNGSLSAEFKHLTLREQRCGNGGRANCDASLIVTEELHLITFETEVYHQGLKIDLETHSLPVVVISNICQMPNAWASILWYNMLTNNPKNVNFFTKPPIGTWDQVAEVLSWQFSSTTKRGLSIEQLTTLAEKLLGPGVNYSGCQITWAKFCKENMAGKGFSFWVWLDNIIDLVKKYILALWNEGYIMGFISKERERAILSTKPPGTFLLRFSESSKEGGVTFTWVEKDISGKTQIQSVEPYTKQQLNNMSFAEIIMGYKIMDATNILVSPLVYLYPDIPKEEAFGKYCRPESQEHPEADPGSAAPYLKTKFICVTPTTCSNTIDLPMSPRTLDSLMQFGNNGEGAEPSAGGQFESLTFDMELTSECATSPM

SMARCC2 C145 (Q8TAQ2), sequence (Q8TAQ2 whole entry): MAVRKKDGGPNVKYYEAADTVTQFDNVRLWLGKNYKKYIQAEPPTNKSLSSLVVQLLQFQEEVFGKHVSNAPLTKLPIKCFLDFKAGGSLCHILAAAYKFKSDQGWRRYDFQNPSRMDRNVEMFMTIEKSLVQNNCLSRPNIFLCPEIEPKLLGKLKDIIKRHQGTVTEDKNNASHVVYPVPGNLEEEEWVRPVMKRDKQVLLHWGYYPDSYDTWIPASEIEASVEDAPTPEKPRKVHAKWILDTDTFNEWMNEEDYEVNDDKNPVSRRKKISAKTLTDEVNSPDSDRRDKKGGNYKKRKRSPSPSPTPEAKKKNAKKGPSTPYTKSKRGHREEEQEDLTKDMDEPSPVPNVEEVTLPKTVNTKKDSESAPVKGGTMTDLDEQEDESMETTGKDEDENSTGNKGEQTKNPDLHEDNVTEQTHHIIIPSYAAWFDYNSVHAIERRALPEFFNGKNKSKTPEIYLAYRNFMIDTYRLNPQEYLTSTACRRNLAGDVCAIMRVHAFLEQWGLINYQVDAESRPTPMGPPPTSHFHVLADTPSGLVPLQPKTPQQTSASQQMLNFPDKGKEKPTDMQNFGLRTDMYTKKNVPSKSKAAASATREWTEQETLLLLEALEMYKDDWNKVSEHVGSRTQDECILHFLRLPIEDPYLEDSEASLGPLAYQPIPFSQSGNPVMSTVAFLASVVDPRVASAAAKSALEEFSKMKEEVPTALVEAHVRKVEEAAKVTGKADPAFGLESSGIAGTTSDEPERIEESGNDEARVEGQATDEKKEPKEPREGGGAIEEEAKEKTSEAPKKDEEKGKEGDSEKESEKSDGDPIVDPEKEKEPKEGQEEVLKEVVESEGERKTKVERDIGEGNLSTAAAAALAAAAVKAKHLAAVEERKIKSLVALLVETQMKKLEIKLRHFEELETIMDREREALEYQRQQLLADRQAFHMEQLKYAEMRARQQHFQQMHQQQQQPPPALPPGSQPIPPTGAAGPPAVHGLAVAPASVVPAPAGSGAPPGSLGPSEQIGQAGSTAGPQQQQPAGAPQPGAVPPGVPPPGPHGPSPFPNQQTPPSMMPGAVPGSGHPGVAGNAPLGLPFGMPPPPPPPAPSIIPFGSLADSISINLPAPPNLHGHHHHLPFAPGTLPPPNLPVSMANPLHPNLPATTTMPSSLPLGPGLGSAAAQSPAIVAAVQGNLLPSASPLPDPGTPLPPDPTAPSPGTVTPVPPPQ

| SMILES | isoTOP-ABPP ratio Q8TAQ2_C145 ([1]; ramos) | isoTOP-ABPP ratio, Q99873_C109 [2]; 231 | isoTOP-ABPP ratio, Q99873_C109 ([2]; ramos) | isoTOP-ABPP ratio, Q15084_C190 ([4]; ramos) | isoTOP-ABPP ratio P24752_C119 [5]; 231 | isoTOP-ABPP ratio P24752_C119 ([5]; ramos) | isoTOP-ABPP ratio P24752_C413 [6]; 231 | isoTOP-ABPP ratio, P40763_C259 [7]; 231 | isoTOP-ABPP ratio, Q15084_C190 [4]; 231 | isoTOP-ABPP ratio Q8TAQ2_C145 [1]; 231 | isoTOP-ABPP ratio P24752_C413 ([6]; ramos) | further results |
| --- | --- | --- | --- | --- | --- | --- | --- | --- | --- | --- | --- | --- |
| C=CC(=O)N(c1ccccc1)c1ccc(Br)cc1 [compound 5] | 2.8 | 0.9 | 1.3 | 1.7 | 1.8 | 2.4 | 1.3 | – | – | – | – | isoTOP-ABPP ratio, Q16763_C118 [3]; 231: 2.8 |
| CNS(=O)(=O)C=Cc1ccc2c(ccn2Cc2ccccc2)c1 [compound 6] | – | 1.1 | – | – | 1.1 | – | 1.1 | 0.6 | 1.1 | – | – | – |
| Cn1cc(S(=O)(=O)N2CCOCC2)cc1C(=O)NC(=O)CCl [compound 11] | – | 20.0 | 20.0 | 20.0 | 1.2 | 0.9 | 1.9 | 20.0 | 20.0 | 20.0 | 1.7 | isoTOP-ABPP ratio, P40763_C259 ([7]; ramos): 20.0; blockade of IA-alkyne labeling of C109 of PRMT1 ([2]; competitive isoTOP-ABPP): blocking IA-alkyne labeling |
| O=C(CCl)NC(=O)NC12CC3CC(CC(C3)C1)C2 [compound 12] | 1.6 | 1.4 | 1.3 | 20.0 | 1.0 | 0.7 | 1.5 | – | – | 2.8 | 1.1 | isoTOP-ABPP ratio, Q16763_C118 ([3]; ramos): 0.6 |
| O=C(/C=C/c1ccccc1)Nc1cc(C(F)(F)F)cc(C(F)(F)F)c1 [compound 26] | – | – | – | – | – | – | – | – | – | – | – | isoTOP-ABPP ratio (reactivity profile), Q8TAQ2_C145 ([1]; 500 μm in-vitro ramos): 0.9; isoTOP-ABPP ratio (reactivity profile), Q99873_C109 ([2]; 500 μm in-vitro ramos): 0.9; isoTOP-ABPP ratio (reactivity profile), Q16763_C118 ([3]; 500 μm in-vitro ramos): 0.9; isoTOP-ABPP ratio (reactivity profile), Q15084_C190 ([4]; 500 μm in-vitro ramos): 0.9; isoTOP-ABPP ratio (reactivity profile), P24752_C119 ([5]; 500 μm in-vitro ramos): 1.0; isoTOP-ABPP ratio (reactivity profile), P24752_C413 ([6]; 500 μm in-vitro ramos): 0.9 |
